These results are taken from ChEMBL document CHEMBL1240316, “An oxidation-sensing mechanism is used by the global regulator MgrA in Staphylococcus aureus” (2006).

Activity calls are given as the source filed them. The rule behind the calls is not given here.

What all share (format): functional, organism-based
Assay [1] has as its system Staphylococcus aureus. Description: Antimicrobial activity against Staphylococcus aureus expressing mgrA C12S mutant gene assessed as visible growth at 0.35 ug/ml after 24 hrs in presence of 20 uM paraquat.
In assay [2] the test system is Staphylococcus aureus. Description: Antimicrobial activity against Staphylococcus aureus expressing mgrAC12S mutant gene assessed as visible growth at 0.20 ug/ml after 24 hrs in presence of 100 uM hydrogen peroxide.
Assay [3] concerns Staphylococcus aureus. Briefly: Antimicrobial activity against Staphylococcus aureus expressing mgrA C12S mutant gene harboring Pyj335-His-mgrA assessed as visible growth at 0.75 ug/ml after 24 hrs.
In assay [4] the test system is Staphylococcus aureus. Description: Antimicrobial activity against Staphylococcus aureus expressing mgrAC12S mutant gene harboring plasmid Pyj335 assessed as visible growth at 0.55 ug/ml after 24 hrs.
In assay [5] the test system is Staphylococcus aureus. Description: Antimicrobial activity against Staphylococcus aureus assessed as visible growth at 0.45 ug/ml after 24 hrs.
The test system of assay [6] is Staphylococcus aureus. Description: Antimicrobial activity against Staphylococcus aureus expressing mgrA C12S mutant gene harboring plasmid Pyj335 assessed as visible growth at 0.75 ug/ml after 24 hrs in presence of 20 uM paraquat.
In assay [7] the test system is Staphylococcus aureus. Description: Antimicrobial activity against Staphylococcus aureus expressing mgrA C12S mutant gene harboring plasmid Pyj335-His-mgrA assessed as visible growth at 0.45 ug/ml after 24 hrs in presence of 20 uM paraquat.
Assay [8] deals with Staphylococcus aureus. Description: Antimicrobial activity against Staphylococcus aureus expressing mgrA C12S mutant gene harboring Pyj335-His-mgrAC12S assessed as visible growth at 0.20 ug/ml after 24 hrs in presence of 25 uM paraquat.
Assay [9] deals with Staphylococcus aureus. Briefly: Antimicrobial activity against Staphylococcus aureus expressing mgrA C12S mutant gene harboring Pyj335-His-mgrA assessed as visible growth at 0.55 ug/ml after 24 hrs in presence of 20 uM paraquat.
Assay [10] has as its system Staphylococcus aureus. Briefly: Antimicrobial activity against Staphylococcus aureus assessed as visible growth at 0.20 ug/ml after 24 hrs.
Assay [11] relates to Staphylococcus aureus. Description: Antimicrobial activity against Staphylococcus aureus expressing mgrA C12S mutant gene harboring Pyj335-His-mgrA assessed as visible growth at 0.20 ug/ml after 24 hrs in presence of 100 uM hydrogen peroxide.
The subject of assay [12] is Staphylococcus aureus. Briefly: Antimicrobial activity against Staphylococcus aureus expressing mgrA C12S mutant gene harboring Pyj335-His-mgrA assessed as visible growth at 0.20 ug/ml after 24 hrs.
Assay [13] relates to Staphylococcus aureus. Briefly: Antimicrobial activity against Staphylococcus aureus expressing mgrA C12S mutant gene harboring plasmid Pyj335 assessed as visible growth at 0.25 ug/ml after 24 hrs.
Assay [14] concerns Staphylococcus aureus. Briefly: Antimicrobial activity against Staphylococcus aureus expressing mgrA C12S mutant gene harboring Pyj335-His-mgrA assessed as visible growth at 0.25 ug/ml after 24 hrs in presence of 20 uM paraquat.
Assay [15] deals with Staphylococcus aureus. Description: Antimicrobial activity against Staphylococcus aureus assessed as visible growth at 0.20 ug/ml after 24 hrs in presence of 100 uM hydrogen peroxide.
The test system of assay [16] is Staphylococcus aureus. Description: Antimicrobial activity against Staphylococcus aureus assessed as visible growth at 0.25 ug/ml after 24 hrs in presence of 20 uM paraquat.
Assay [17] relates to Staphylococcus aureus. Description: Antimicrobial activity against Staphylococcus aureus expressing mgrA C12S mutant gene harboring Pyj335-His-mgrA C12S assessed as visible growth at 0.20 ug/ml after 24 hrs.
The test system of assay [18] is Staphylococcus aureus. Briefly: Antimicrobial activity against Staphylococcus aureus expressing mgrA C12S mutant gene harboring plasmid Pyj335 assessed as visible growth at 0.20 ug/ml after 24 hrs.
Assay [19] relates to Staphylococcus aureus. Briefly: Antimicrobial activity against Staphylococcus aureus assessed as visible growth at 0.25 ug/ml after 24 hrs.
Assay [20] deals with Staphylococcus aureus. Briefly: Antimicrobial activity against Staphylococcus aureus assessed as visible growth at 0.55 ug/ml after 24 hrs.
Assay [21] concerns Staphylococcus aureus. Briefly: Antimicrobial activity against Staphylococcus aureus expressing mgrA C12S mutant gene harboring plasmid Pyj335 assessed as visible growth at 1.1 ug/ml after 24 hrs.
Assay [22] has as its system Staphylococcus aureus. Description: Antimicrobial activity against Staphylococcus aureus expressing mgrA C12S mutant gene harboring Pyj335-His-mgrA assessed as visible growth at 2.6 ug/ml after 24 hrs.
Assay [23] deals with Staphylococcus aureus. Description: Antimicrobial activity against Staphylococcus aureus expressing mgrA C12S mutant gene assessed as visible growth at 2.6 ug/ml after 24 hrs in presence of 20 uM paraquat.
Assay [24] has as its system Staphylococcus aureus. Briefly: Antimicrobial activity against Staphylococcus aureus expressing mgrA C12S mutant gene harboring plasmid Pyj335 assessed as visible growth at 0.6 ug/ml after 24 hrs.
Assay [25] relates to Staphylococcus aureus. Description: Antimicrobial activity against Staphylococcus aureus expressing mgrA C12S mutant gene harboring plasmid Pyj335 assessed as visible growth at 1.8 ug/ml after 24 hrs in presence of 20 uM paraquat.
For assay [26], the system named is Staphylococcus aureus. Description: Antimicrobial activity against Staphylococcus aureus expressing mgrA C12S mutant gene harboring Pyj335-His-mgrA C12S assessed as visible growth at 1.1 ug/ml after 24 hrs.
The subject of assay [27] is Staphylococcus aureus. Briefly: Antimicrobial activity against Staphylococcus aureus expressing mgrA C12S mutant gene harboring Pyj335-His-mgrA assessed as visible growth at 2.2 ug/ml after 24 hrs in presence of 20 uM paraquat.
Assay [28] deals with Staphylococcus aureus. Briefly: Antimicrobial activity against Staphylococcus aureus expressing mgrA C12S mutant gene assessed as visible growth at 1 ug/ml after 24 hrs in presence of 20 uM paraquat.
Assay [29] has as its system Staphylococcus aureus. Description: Antimicrobial activity against Staphylococcus aureus expressing mgrA C12S mutant gene assessed as visible growth at 1 ug/ml after 24 hrs.
Assay [30] relates to Staphylococcus aureus. Briefly: Antimicrobial activity against Staphylococcus aureus expressing mgrA C12S mutant gene harboring plasmid Pyj335 assessed as visible growth at 1.8 ug/ml after 24 hrs.
Assay [31] relates to Staphylococcus aureus. Briefly: Antimicrobial activity against Staphylococcus aureus assessed as visible growth at 2.6 ug/ml after 24 hrs.
The test system of assay [32] is Staphylococcus aureus. Description: Antimicrobial activity against Staphylococcus aureus assessed as visible growth at 1.1 ug/ml after 24 hrs in presence of 25 uM paraquat.
The subject of assay [33] is Staphylococcus aureus. Description: Antimicrobial activity against Staphylococcus aureus assessed as visible growth at 1 ug/ml after 24 hrs.
Assay [34] concerns Staphylococcus aureus. Description: Antimicrobial activity against Staphylococcus aureus assessed as visible growth at 2.2 ug/ml after 24 hrs in presence of 20 uM paraquat.
Assay [35] concerns Staphylococcus aureus. Briefly: Antimicrobial activity against Staphylococcus aureus expressing mgrA C12S mutant gene assessed as visible growth at 2.2 ug/ml after 24 hrs.
For assay [36], the system named is Staphylococcus aureus. Description: Antimicrobial activity against Staphylococcus aureus expressing mgrA C12S mutant gene harboring Pyj335-His-mgrA assessed as visible growth at 1.4 ug/ml after 24 hrs.
In assay [37] the test system is Staphylococcus aureus. Briefly: Antimicrobial activity against Staphylococcus aureus expressing mgrA C12S mutant gene assessed as visible growth at 1.1 ug/ml after 24 hrs in presence of 25 uM paraquat.
In assay [38] the test system is Staphylococcus aureus. Description: Antimicrobial activity against Staphylococcus aureus expressing mgrA C12S mutant gene harboring plasmid Pyj335 assessed as visible growth at 1.4 ug/ml after 24 hrs in presence of 20 uM paraquat.
For assay [39], the system named is Staphylococcus aureus. Briefly: Antimicrobial activity against Staphylococcus aureus expressing mgrA C12S mutant gene assessed as visible growth at 0.6 ug/ml after 24 hrs.

For `O=C(O)c1cn(C2CC2)c2cc(N3CCNCC3)c(F)cc2c1=O` [CIPROFLOXACIN], the result in the assay with Staphylococcus aureus [1], in the assay with Staphylococcus aureus [2], with Staphylococcus aureus [4], with Staphylococcus aureus [7], in the assay with Staphylococcus aureus [9] and with Staphylococcus aureus [13] was inactive. For the same compound, the outcome in the assay on Staphylococcus aureus [14], in the assay with Staphylococcus aureus [16], in the assay on Staphylococcus aureus [18] and in the assay with Staphylococcus aureus [19] was inactive. The outcome in the assay with Staphylococcus aureus [3], in the assay with Staphylococcus aureus [5], with Staphylococcus aureus [6], in the assay on Staphylococcus aureus [8], in the assay with Staphylococcus aureus [10] and in the assay with Staphylococcus aureus [11] was Active. The result in the assay with Staphylococcus aureus [12], with Staphylococcus aureus [15], in the assay on Staphylococcus aureus [17] and in the assay with Staphylococcus aureus [20] was Active.

Regarding `CN[C@H](CC(C)C)C(=O)N[C@H]1C(=O)N[C@@H](CC(N)=O)C(=O)N[C@H]2C(=O)N[C@H]3C(=O)N[C@H](C(=O)N[C@H](C(=O)O)c4cc(O)cc(O)c4-c4cc3ccc4O)[C@H](O)c3ccc(c(Cl)c3)Oc3cc2cc(c3O[C@@H]2O[C@H](CO)[C@@H](O)[C@H](O)[C@H]2O[C@H]2C[C@](C)(N)[C@H](O)[C@H](C)O2)Oc2ccc(cc2Cl)[C@H]1O` [VANCOMYCIN], the outcome with Staphylococcus aureus [21], with Staphylococcus aureus [24], in the assay with Staphylococcus aureus [25], in the assay on Staphylococcus aureus [28], in the assay with Staphylococcus aureus [29] and with Staphylococcus aureus [30] was inactive. Moreover, the outcome in the assay with Staphylococcus aureus [33], with Staphylococcus aureus [35], with Staphylococcus aureus [37], with Staphylococcus aureus [38] and in the assay with Staphylococcus aureus [39] was inactive. The result in the assay on Staphylococcus aureus [22], with Staphylococcus aureus [23], in the assay on Staphylococcus aureus [26], with Staphylococcus aureus [27], in the assay with Staphylococcus aureus [31] and in the assay on Staphylococcus aureus [32] was Active. Besides, the outcome in the assay on Staphylococcus aureus [34] and with Staphylococcus aureus [36] was Active.
